Measurements from ChEMBL document CHEMBL1201862, “PubChem BioAssay data set” (2004).
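The compound was tested at five concentrations on cells cultured in 96-well plates, with a 48-hour exposure period. Here, GI50 denotes the concentration required for 50% inhibition of growth.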 Calls of active or inactive are those of the source. Rule as the data show it: active = GI50 up to about 1.1 µM and inactive = higher.

Assays:
Experiment in all cases: NCI anticancer screen, dose series, 48 h
SK-OV-3 = test system: SK-OV-3
CCRF-CEM = test system: CCRF-CEM
M14 = test system: M14
HOP-92 = test system: HOP-92
EKVX = test system: EKVX
HCT-116 = test system: HCT-116
UACC-257 = test system: UACC-257
K562 = test system: K562
DMS-114 = test system: DMS-114
XF498 = test system: XF498
RPMI-8226 = test system: RPMI-8226
CAKI-1 = test system: CAKI-1
IGROV-1 = test system: IGROV-1
SR = test system: SR
SN12C = test system: SN12C
LOX IMVI = test system: LOX IMVI
HOP-18 = test system: HOP-18
COLO 205 = test system: COLO 205
HL-60 = test system: HL-60
HOP-62 = test system: HOP-62
U-251 = test system: U-251
A498 = test system: A498
UO-31 = test system: UO-31
OVCAR-4 = test system: OVCAR-4
SF-268 = test system: SF-268
SK-MEL-2 = test system: SK-MEL-2
Malme-3M = test system: Malme-3M
SF-539 = test system: SF-539
OVCAR-8 = test system: OVCAR-8
NCI-H460 = test system: NCI-H460
DLD-1 = test system: DLD-1
NCI-H226 = test system: NCI-H226
RXF 393 = test system: RXF 393
A549 = test system: A549
LXFL 529 = test system: LXFL 529
RXF 631 = test system: RXF 631
TK-10 = test system: TK-10
SNB-78 = test system: SNB-78
UACC-62 = test system: UACC-62
SF-295 = test system: SF-295
DMS-273 = test system: DMS-273
HT-29 = test system: HT-29
NCI-H23 = test system: NCI-H23
NCI-H522 = test system: NCI-H522
SW-620 = test system: SW-620
MOLT-4 = test system: MOLT-4
786-0 = test system: 786-0
KM12 = test system: KM12
OVCAR-5 = test system: OVCAR-5
HCC 2998 = test system: HCC 2998
KM-20L2 = test system: KM-20L2
OVCAR-3 = test system: OVCAR-3
SNB-75 = test system: SNB-75
ACHN = test system: ACHN
SK-MEL-28 = test system: SK-MEL-28
SNB-19 = test system: SNB-19
HCT-15 = test system: HCT-15
SK-MEL-5 = test system: SK-MEL-5

**Q.** What does the source list for `O=C(Cc1ccccc1)NS(=O)(=O)c1ccccc1`?
**A.** GI50 (SK-OV-3): > 100 µM (inactive); GI50 (CCRF-CEM): > 100 µM (inactive); GI50 (M14): > 100 µM (inactive); GI50 (HOP-92): > 100 µM (inactive); GI50 (EKVX): > 100 µM (inactive); GI50 (HCT-116): > 100 µM (inactive); GI50 (UACC-257): > 100 µM (inactive); GI50 (K562): > 100 µM (inactive); GI50 (DMS-114): > 100 µM (inactive); GI50 (XF498): > 100 µM (inactive); GI50 (RPMI-8226): > 100 µM (inactive); GI50 (CAKI-1): > 100 µM (inactive); GI50 (IGROV-1): > 100 µM (inactive); GI50 (SR): > 100 µM (inactive); GI50 (SN12C): > 100 µM (inactive); GI50 (LOX IMVI): > 100 µM (inactive); GI50 (HOP-18): > 100 µM (inactive); GI50 (COLO 205): > 100 µM (inactive); GI50 (HL-60): > 100 µM (inactive); GI50 (HOP-62): > 100 µM (inactive); GI50 (U-251): > 100 µM (inactive); GI50 (A498): > 100 µM (inactive); GI50 (UO-31): > 100 µM (inactive); GI50 (OVCAR-4): > 100 µM (inactive); GI50 (SF-268): > 100 µM (inactive); GI50 (SK-MEL-2): > 100 µM (inactive); GI50 (Malme-3M): > 100 µM (inactive); GI50 (SF-539): > 100 µM (inactive); GI50 (OVCAR-8): > 100 µM (inactive); GI50 (NCI-H460): > 100 µM (inactive); GI50 (DLD-1): > 100 µM (inactive); GI50 (NCI-H226): > 100 µM (inactive); GI50 (RXF 393): > 100 µM (inactive); GI50 (A549): > 100 µM (inactive); GI50 (LXFL 529): > 100 µM (inactive); GI50 (RXF 631): > 100 µM (inactive); GI50 (TK-10): > 100 µM (inactive); GI50 (SNB-78): > 100 µM (inactive); GI50 (UACC-62): > 100 µM (inactive); GI50 (SF-295): > 100 µM (inactive); GI50 (DMS-273): > 100 µM (inactive); GI50 (HT-29): > 100 µM (inactive); GI50 (NCI-H23): > 100 µM (inactive); GI50 (NCI-H522): > 100 µM (inactive); GI50 (SW-620): > 100 µM (inactive); GI50 (MOLT-4): > 100 µM (inactive); GI50 (786-0): > 100 µM (inactive); GI50 (KM12): > 100 µM (inactive); GI50 (OVCAR-5): > 100 µM (inactive); GI50 (HCC 2998): > 100 µM (inactive); GI50 (KM-20L2): > 100 µM (inactive); GI50 (OVCAR-3): > 100 µM (inactive); GI50 (SNB-75): > 100 µM (inactive); GI50 (ACHN): > 100 µM (inactive); GI50 (SK-MEL-28): > 100 µM (inactive); GI50 (SNB-19): > 100 µM (inactive)

**Q.** Which GI50 (SK-OV-3) does the source give for `COC1C2c3cc4c(cc3CC(C#N)(c3ccccc32)N1C(=O)c1ccccc1)OCO4` (stereo not given) here?
**A.** > 100 µM (inactive)

**Q.** And the GI50 (CCRF-CEM)?
**A.** > 100 µM (inactive)

**Q.** What about the GI50 (M14) of the same compound?
**A.** > 100 µM (inactive)

**Q.** And the GI50 (HOP-92)?
**A.** > 100 µM (inactive)

**Q.** And the GI50 (EKVX)?
**A.** > 100 µM (inactive)

**Q.** What about the GI50 (HCT-116) of the same compound?
**A.** > 100 µM (inactive)

**Q.** What about the GI50 (UACC-257) of the same compound?
**A.** > 100 µM (inactive)

**Q.** And the GI50 (K562)?
**A.** 54.6 µM (inactive)

**Q.** What about the GI50 (DMS-114) of the same compound?
**A.** 70.6 µM (inactive)

**Q.** What about the GI50 (XF498) of the same compound?
**A.** > 100 µM (inactive)

**Q.** And the GI50 (RPMI-8226)?
**A.** 21 µM (inactive)

**Q.** And the GI50 (IGROV-1)?
**A.** > 100 µM (inactive)

**Q.** And the GI50 (SR)?
**A.** 54.7 µM (inactive)

**Q.** What about the GI50 (HCT-15) of the same compound?
**A.** > 100 µM

**Q.** And the GI50 (SN12C)?
**A.** > 100 µM (inactive)

**Q.** What about the GI50 (LOX IMVI) of the same compound?
**A.** > 100 µM (inactive)

**Q.** And the GI50 (HOP-18)?
**A.** > 100 µM (inactive)

**Q.** What about the GI50 (COLO 205) of the same compound?
**A.** > 100 µM (inactive)

**Q.** What about the GI50 (HL-60) of the same compound?
**A.** > 100 µM (inactive)

**Q.** And the GI50 (HOP-62)?
**A.** 48 µM (inactive)

**Q.** What about the GI50 (U-251) of the same compound?
**A.** > 100 µM (inactive)

**Q.** What about the GI50 (SK-MEL-5) of the same compound?
**A.** 33 µM (inactive)

**Q.** And the GI50 (UO-31)?
**A.** 78.3 µM (inactive)

**Q.** And the GI50 (SF-268)?
**A.** > 100 µM (inactive)

**Q.** And the GI50 (SK-MEL-2)?
**A.** > 100 µM (inactive)

**Q.** And the GI50 (Malme-3M)?
**A.** > 100 µM (inactive)

**Q.** And the GI50 (SF-539)?
**A.** > 100 µM (inactive)

**Q.** What about the GI50 (OVCAR-8) of the same compound?
**A.** > 100 µM (inactive)

**Q.** What about the GI50 (NCI-H460) of the same compound?
**A.** > 100 µM (inactive)

**Q.** And the GI50 (DLD-1)?
**A.** > 100 µM (inactive)

**Q.** What about the GI50 (NCI-H226) of the same compound?
**A.** 93.3 µM (inactive)

**Q.** What about the GI50 (RXF 393) of the same compound?
**A.** 32.2 µM (inactive)

**Q.** And the GI50 (LXFL 529)?
**A.** > 100 µM (inactive)

**Q.** What about the GI50 (RXF 631) of the same compound?
**A.** > 100 µM (inactive)

**Q.** And the GI50 (TK-10)?
**A.** > 100 µM (inactive)

**Q.** And the GI50 (SNB-78)?
**A.** > 100 µM (inactive)

**Q.** And the GI50 (UACC-62)?
**A.** 4.94 µM (inactive)

**Q.** What about the GI50 (SF-295) of the same compound?
**A.** > 100 µM (inactive)

**Q.** And the GI50 (DMS-273)?
**A.** > 100 µM (inactive)

**Q.** And the GI50 (HT-29)?
**A.** > 100 µM (inactive)

**Q.** And the GI50 (NCI-H23)?
**A.** > 100 µM (inactive)

**Q.** And the GI50 (NCI-H522)?
**A.** 87.3 µM (inactive)

**Q.** And the GI50 (SW-620)?
**A.** > 100 µM (inactive)

**Q.** And the GI50 (MOLT-4)?
**A.** 97.5 µM (inactive)

**Q.** What about the GI50 (786-0) of the same compound?
**A.** > 100 µM (inactive)

**Q.** What about the GI50 (KM12) of the same compound?
**A.** > 100 µM (inactive)

**Q.** What about the GI50 (OVCAR-5) of the same compound?
**A.** > 100 µM (inactive)

**Q.** What about the GI50 (HCC 2998) of the same compound?
**A.** > 100 µM (inactive)

**Q.** And the GI50 (KM-20L2)?
**A.** > 100 µM (inactive)

**Q.** And the GI50 (OVCAR-3)?
**A.** > 100 µM (inactive)

**Q.** What about the GI50 (SNB-75) of the same compound?
**A.** > 100 µM (inactive)

**Q.** What about the GI50 (ACHN) of the same compound?
**A.** > 100 µM (inactive)

**Q.** What about the GI50 (SK-MEL-28) of the same compound?
**A.** > 100 µM (inactive)

**Q.** What about the GI50 (SNB-19) of the same compound?
**A.** > 100 µM (inactive)
